Values after ≈ are worked out from the molar mass of the structure shown.
Test system: Mtb BioA over-expression strain (BioA-OE)
Format: cell-based, Mycobacterium tuberculosis

C=C(CCC(=O)O)c1nc2ccccc2s1 [Compound 13, 4-(benzothiazol-2-yl)pentenoic acid]
MIC90 BioA-OE: 4.7 µM (≈ 1.1 µg/mL)

Reference: PMC4305006 (Chemistry & biology, 2014)
